Data: patent US12642794B2, “Dose regimens for use of LY3154207 in the treatment of dopaminergic CNS disorders” (Eli Lilly and Company, priority 2018, dated 2026)
“Also recorded” adds a separate entry of the source.

Legend:
Format in all cases: in vivo, human
[1] = system: healthy subjects; test: HBEA ambulatory blood pressure monitoring (ABPM): blood pressure and pulse rate
Procedure: (§1) This is a phase 1, SAD, crossover design of LY3154207 in healthy subjects conducted in 2 alternating cohorts with dose escalation. Subjects are dosed at 25 mg, 75 mg, 100 mg, 150 mg and 200 mg or placebo. Safety parameters assessed include adverse events (AEs), safety laboratories, vital signs, ambulatory blood pressure monitoring (ABPM) and electrocardiogram (ECG). Subjects provide blood samples after dosing to measure plasma concentrations of LY3154207 for assessment of PK.
Eighteen subjects enrolled with 17 subjects completing the study. […] One subject withdrew due to anxiety following a 150 mg dose. A total of 111 treatment emergent AEs occurred and were mostly mild (101/111). Insomnia, decreased appetite, anxiety, dizziness, headache, nausea, upper abdominal pain, and dysgeusia were the most common AEs and the majority (69/111) occurred at doses ≥100 mg. A dose-related signal for increases in pulse and blood pressure occurred and resolved in 24 hours. […] The administered LY3154207 dose excreted in urine was 0.02%. […] Data indicating a dose-related signal for increases in pulse and blood pressure also indicate the dosing regimens of the present invention may provide an improved combination of efficacy, safety, and clinical tolerability for use of LY3154207 which can avoid and/or minimize these undesirable effects. […] In HBEA Part A, treatment-related adverse events (AEs) occurred primarily at doses ≥100 mg and were mostly mild. In HBEA Part B, treatment-related AEs occurred only at 75 mg (25% of subjects) and were all mild: energy increased, anxiety, decreased appetite, and dizziness. […] Based on ABPM, the 4- to 8-hour estimates of the difference in least squares means for LY3154207 200 mg vs. placebo were 32 beats per minute (bpm) for pulse rate, and 14 mm Hg and 10 mm Hg for systolic and diastolic blood pressure, respectively.

[2] = system: healthy subjects; test: HBEA Part A single ascending dose study: adverse events, safety, tolerability
Procedure: FIG. 1: Design of the study HBEA, a single ascending dose study of a D1 receptor positive allosteric modulator LY3154207 in healthy volunteers. aSafety review completed after each dose level prior to escalation. bDose escalation was terminated at 200 mg owing to cardiovascular effects. CSF=cerebrospinal fluid: LY=LY3154207: PBO=placebo: PK-pharmacokinetic.
HBEA is a single ascending dose study of a D1 receptor positive allosteric modulator LY3154207 in healthy volunteers. Study HBEA aims to determine the safety, tolerability, and peripheral and central pharmacokinetics (PK) of single ascending doses of LY3154207 in healthy subjects. Study HBEB aims to evaluate the effect of single-dose LY3154207 on sleep latency in sleep-deprived healthy male subjects as measured by a multiple sleep latency test (MSLT). HBEA was a Phase 1, 2-part, randomized, double-blind, placebo-controlled study in healthy males or females. Part A has a 3-period crossover design with 2 alternating, single-dose escalating cohorts, and subjects were randomized to LY3154207 (n=6) or placebo (n=3) in each cohort in each dosing period. Part B has a single-period, single-dose, 2-cohort design with cerebrospinal fluid (CSF) sampling, and subjects were randomized to LY3154207 (n=8) or placebo (n=4) in each cohort.
as §1

[3] = system: healthy volunteers; test: HBEC cognition tests: Digit Symbol Substitution Test (DSST), Hopkins Verbal Learning Test (HVLT); conditions: 15 mg
[4] = 200 mg, ABPM 4- to 8-hour estimate

SMILES: C[C@H]1c2cccc(CCC(C)(C)O)c2C[C@H](CO)N1C(=O)Cc1c(Cl)cccc1Cl [LY3154207]
- diastolic blood pressure, difference in least squares means vs. placebo [1, 4]: 10 mm Hg
- pulse rate, difference in least squares means vs. placebo [1, 4]: 32 bpm
- systolic blood pressure, difference in least squares means vs. placebo [1, 4]: 14 mm Hg
- time to resolution of increases in blood pressure and pulse rate ([1]; ABPM, mostly resolving): ≤ 24 h
- effect on blood pressure and pulse rate measured by ABPM ([1]; single doses 25-200 mg, diurnal rhythm preserved): dose-related increase
- serious or severe AEs ([2]; HBEA): No serious or severe AEs occurred
- treatment emergent AEs that occurred at doses ≥100 mg, of the total of 111 ([2]; HBEA Part A, doses ≥100 mg): 69/111
- severity of treatment-related AEs ([2]; HBEA Part A, occurred primarily at doses ≥100 mg): mostly mild
- tolerability ([2]; HBEA, increase in AEs associated with central activation at doses ≥75 mg): well tolerated
- frequency of activating adverse events such as insomnia ([2]; above the 75 mg dose): substantial increase in frequency
- safety profile ([2]; dose range of 25-200 mg): acceptable safety profile
- safety and tolerability ([2]; doses ≤75 mg): acceptable safety and tolerability
- Anxiety, treatment-related AE, n subjects ([2]; single dose 25 mg (N = 6)): 0 n
- Decreased appetite, treatment-related AE, n subjects ([2]; single dose 25 mg (N = 6)): 0 n
- Dizziness, treatment-related AE, n subjects ([2]; single dose 25 mg (N = 6)): 0 n
- Dysgeusia, treatment-related AE, n subjects ([2]; single dose 25 mg (N = 6)): 0 n
- Energy increased, treatment-related AE, n subjects ([2]; single dose 25 mg (N = 6)): 0 n
- Feeling hot, treatment-related AE, n subjects ([2]; single dose 25 mg (N = 6)): 0 n
- Headache, treatment-related AE, n subjects ([2]; single dose 25 mg (N = 6)): 0 n
- Insomnia, treatment-related AE, n subjects ([2]; single dose 25 mg (N = 6)): 0 n
- Nausea, treatment-related AE, n subjects ([2]; single dose 25 mg (N = 6)): 0 n
- Treatment-related AEs, (%) ([2]; single dose 25 mg (N = 6)): 16.7%
- Treatment-related AEs, [events] ([2]; single dose 25 mg (N = 6)): [1] events
- Anxiety, treatment-related AE, n subjects ([2]; single dose 75 mg (N = 6)): 0 n
- Decreased appetite, treatment-related AE, [events] ([2]; single dose 75 mg (N = 6)): 1 [1] events
- Decreased appetite, treatment-related AE, n subjects ([2]; single dose 75 mg (N = 6)): 1 [1] n
- Dizziness, treatment-related AE, [events] ([2]; single dose 75 mg (N = 6)): 2 [2] events
- Dizziness, treatment-related AE, n subjects ([2]; single dose 75 mg (N = 6)): 2 [2] n
- Dysgeusia, treatment-related AE, n subjects ([2]; single dose 75 mg (N = 6)): 0 n
- Energy increased, treatment-related AE, n subjects ([2]; single dose 75 mg (N = 6)): 0 n
- Feeling hot, treatment-related AE, n subjects ([2]; single dose 75 mg (N = 6)): 0 n
- Headache, treatment-related AE, [events] ([2]; single dose 75 mg (N = 6)): 1 [1] events
- Headache, treatment-related AE, n subjects ([2]; single dose 75 mg (N = 6)): 1 [1] n
- Insomnia, treatment-related AE, [events] ([2]; single dose 75 mg (N = 6)): 1 [1] events
- Insomnia, treatment-related AE, n subjects ([2]; single dose 75 mg (N = 6)): 1 [1] n
- Nausea, treatment-related AE, n subjects ([2]; single dose 75 mg (N = 6)): 0 n
- Treatment-related AEs, (%) ([2]; single dose 75 mg (N = 6)): 66.7%
- Treatment-related AEs, [events] ([2]; single dose 75 mg (N = 6)): [8] events
- Anxiety, treatment-related AE, [events] ([2]; single dose 100 mg (N = 8)): 2 [2] events
- Anxiety, treatment-related AE, n subjects ([2]; single dose 100 mg (N = 8)): 2 [2] n
- Decreased appetite, treatment-related AE, [events] ([2]; single dose 100 mg (N = 8)): 1 [1] events
- Decreased appetite, treatment-related AE, n subjects ([2]; single dose 100 mg (N = 8)): 1 [1] n
- Dizziness, treatment-related AE, [events] ([2]; single dose 100 mg (N = 8)): 1 [1] events
- Dizziness, treatment-related AE, n subjects ([2]; single dose 100 mg (N = 8)): 1 [1] n
- Dysgeusia, treatment-related AE, [events] ([2]; single dose 100 mg (N = 8)): 2 [2] events
- Dysgeusia, treatment-related AE, n subjects ([2]; single dose 100 mg (N = 8)): 2 [2] n
- Energy increased, treatment-related AE, [events] ([2]; single dose 100 mg (N = 8)): 1 [1] events
- Energy increased, treatment-related AE, n subjects ([2]; single dose 100 mg (N = 8)): 1 [1] n
- Feeling hot, treatment-related AE, [events] ([2]; single dose 100 mg (N = 8)): 1 [1] events
- Feeling hot, treatment-related AE, n subjects ([2]; single dose 100 mg (N = 8)): 1 [1] n
- Headache, treatment-related AE, n subjects ([2]; single dose 100 mg (N = 8)): 0 n
- Insomnia, treatment-related AE, [events] ([2]; single dose 100 mg (N = 8)): 4 [4] events
- Insomnia, treatment-related AE, n subjects ([2]; single dose 100 mg (N = 8)): 4 [4] n
- Nausea, treatment-related AE, n subjects ([2]; single dose 100 mg (N = 8)): 0 n
- Treatment-related AEs, (%) ([2]; single dose 100 mg (N = 8)): 75.0%
- Treatment-related AEs, [events] ([2]; single dose 100 mg (N = 8)): [17] events
- Anxiety, treatment-related AE, [events] ([2]; single dose 150 mg (N = 9)): 4 events
- Anxiety, treatment-related AE, n subjects ([2]; single dose 150 mg (N = 9)): 3 n
- Decreased appetite, treatment-related AE, [events] ([2]; single dose 150 mg (N = 9)): 3 [3] events
- Decreased appetite, treatment-related AE, n subjects ([2]; single dose 150 mg (N = 9)): 3 [3] n
- Dizziness, treatment-related AE, [events] ([2]; single dose 150 mg (N = 9)): 2 [2] events
- Dizziness, treatment-related AE, n subjects ([2]; single dose 150 mg (N = 9)): 2 [2] n
- Dysgeusia, treatment-related AE, [events] ([2]; single dose 150 mg (N = 9)): 2 [2] events
- Dysgeusia, treatment-related AE, n subjects ([2]; single dose 150 mg (N = 9)): 2 [2] n
- Energy increased, treatment-related AE, [events] ([2]; single dose 150 mg (N = 9)): 1 [1] events
- Energy increased, treatment-related AE, n subjects ([2]; single dose 150 mg (N = 9)): 1 [1] n
- Feeling hot, treatment-related AE, [events] ([2]; single dose 150 mg (N = 9)): 1 [1] events
- Feeling hot, treatment-related AE, n subjects ([2]; single dose 150 mg (N = 9)): 1 [1] n
- Headache, treatment-related AE, [events] ([2]; single dose 150 mg (N = 9)): 2 [2] events
- Headache, treatment-related AE, n subjects ([2]; single dose 150 mg (N = 9)): 2 [2] n
- Insomnia, treatment-related AE, [events] ([2]; single dose 150 mg (N = 9)): 3 [3] events
- Insomnia, treatment-related AE, n subjects ([2]; single dose 150 mg (N = 9)): 3 [3] n
- Nausea, treatment-related AE, [events] ([2]; single dose 150 mg (N = 9)): 2 [2] events
- Nausea, treatment-related AE, n subjects ([2]; single dose 150 mg (N = 9)): 2 [2] n
- Treatment-related AEs, (%) ([2]; single dose 150 mg (N = 9)): 88.9%
- Treatment-related AEs, [events] ([2]; single dose 150 mg (N = 9)): [34] events
- Anxiety, treatment-related AE, [events] ([2]; single dose 200 mg (N = 6)): 1 [1] events
- Anxiety, treatment-related AE, n subjects ([2]; single dose 200 mg (N = 6)): 1 [1] n
- Decreased appetite, treatment-related AE, [events] ([2]; single dose 200 mg (N = 6)): 2 [2] events
- Decreased appetite, treatment-related AE, n subjects ([2]; single dose 200 mg (N = 6)): 2 [2] n
- Dizziness, treatment-related AE, [events] ([2]; single dose 200 mg (N = 6)): 1 [1] events
- Dizziness, treatment-related AE, n subjects ([2]; single dose 200 mg (N = 6)): 1 [1] n
- Dysgeusia, treatment-related AE, n subjects ([2]; single dose 200 mg (N = 6)): 0 n
- Energy increased, treatment-related AE, [events] ([2]; single dose 200 mg (N = 6)): 1 [1] events
- Energy increased, treatment-related AE, n subjects ([2]; single dose 200 mg (N = 6)): 1 [1] n
- Feeling hot, treatment-related AE, [events] ([2]; single dose 200 mg (N = 6)): 1 [1] events
- Feeling hot, treatment-related AE, n subjects ([2]; single dose 200 mg (N = 6)): 1 [1] n
- Headache, treatment-related AE, n subjects ([2]; single dose 200 mg (N = 6)): 0 n
- Insomnia, treatment-related AE, [events] ([2]; single dose 200 mg (N = 6)): 3 [3] events
- Insomnia, treatment-related AE, n subjects ([2]; single dose 200 mg (N = 6)): 3 [3] n
- Nausea, treatment-related AE, [events] ([2]; single dose 200 mg (N = 6)): 2 [2] events
- Nausea, treatment-related AE, n subjects ([2]; single dose 200 mg (N = 6)): 2 [2] n
- Treatment-related AEs, (%) ([2]; single dose 200 mg (N = 6)): 83.3%
- Treatment-related AEs, [events] ([2]; single dose 200 mg (N = 6)): [18] events
- Hopkins Verbal Learning Test (HVLT), improvement from baseline relative to other arms [3]: largest average improvement from baseline
- Digit Symbol Substitution Test (DSST), change from baseline relative to other arms ([3]; both post dose time points): highest average change from baseline; also recorded: trend for better cognitive effects
